Test results reported in patent US7514432B2, “Compounds and methods of treating cell proliferative diseases, retinopathies and arthritis” (Exonhit Therapeutics SA, priority 2003, dated 2009).

Assays:
HMEC1 = test: Cell viability assay (MTT), HMEC1; format: cell-based, Human; conditions: MTT, 10% FBS, 6-day treatment, 1% DMSO
Method: (§1) Table 12: 6-day cell viability assay (MTT) in the presence of 10% Fetal Bovine Serum and 1% DMSO, in HMEC1, HCT116, MDA-MB-231, MCF7 and NIH3T3 cell lines. 3 10^3 to 15 10^3 cells were seeded in 48-well plates in growth medium containing 10% FBS, with or without various concentrations of test compounds. Cell cultures were fed every 3 days with the appropriate media. Cell viability was determined on day 6. Data were analyzed and IC50s were calculated from dose-response curves using GraphPad Prism. Results summarized in the tables are mean±SEM of 1 to 8 independent experiments.
(§2) In order to determine a compound's effect on cell viability, microculture tetrazolium assays (MTT) were performed as described by Carmichael et al. (1996) with modifications. Four human tumoral cell lines, namely HCT116 colon adenocarcinoma, H460 lung carcinoma, MCF-7 and MDA-MB-231 breast carcinoma cell lines, DLD1 colorectal adenocarcinoma, HeLa adenocarcinoma, HepG2 hepatocellular carcinoma. 3 immortalized but non tumorigenic cell lines, namely NIH3T3 mouse fibroblasts (American Type Culture Collection) and primary hepatocytes (Biopredic international), cultured according to their recommendations together with Human Microvasculature Endothelial Cell line HMEC1 (National Center for Infectious Diseases). Briefly, cells were seeded in 48-well plates 24 hours before drug addition. Cells were treated with 0 to 200 μM (11 concentrations) of compound solubilized in DMSO, adjusting the final concentration of DMSO to 1% in the well. 16 hours, and three or six days after treatment, 0.5 mg/ml MTT (Sigma) was added to the medium and cells were incubated for 1-5 hours at 37° C. before solubilization of formazan crystals in 100% DMSO. Absorbance was measured using a spectrophotometer at a wavelength of 550 nm. Data was analyzed using the GraphPad Prism software (GraphPad Software, Inc.), and IC50 (dose leading to 50% cell death) was calculated from the dose-response curves.

HCT116 = test: Cell viability assay (MTT), HCT116; format: cell-based, human; conditions: 10% FBS, 6-day treatment, 1% DMSO
Method: as §1
Table 13: 6-day cell viability assay (MTT) in the presence of 0.5% Fetal Bovine Serum and 1% DMSO, in HCT116 and MDA-MB-231 cell lines. 7.5 10^4 to 15 10^4 cells were seeded in 48-well plates in growth medium containing 10% FBS, with or without various concentrations of test compounds. Cell cultures were fed every 3 days with the appropriate media. Cell viability was determined on day 6. Data were analyzed and IC50s were calculated from dose-response curves using GraphPad Prism. Results summarized in the tables are mean±SEM of 1 to 2 independent experiments.
Table 14: 3-day cell viability assay (MTT) in the presence of 10% Fetal Bovine Serum and 1% DMSO, in DLD1, HCT116, MDA-MB-231, MCF7 and HeLa cells. 7.5 10^3 to 1.5 10^4 cells were seeded in 48-well plates in growth medium containing 10% FBS, with or without various concentrations of test compounds. Data were analyzed and IC50s were calculated from dose-response curves using GraphPad Prism. Results summarized in the tables are mean±SEM of 1 to 7 independent experiments.
Table 15: 16-hour cell viability assay (MTT) in the presence of 10% Fetal Bovine Serum and 1% DMSO, in HCT116, MDA-MB-231, NIH3T3, HepG2 and primary hepatocytes. 5 10^4 to 10 10^4 cells were seeded in 48-well plates in growth medium containing 10% FBS, with or without various concentrations of test compounds. Data were analyzed and IC50s were calculated from dose-reponse curves using GraphPad Prism. Results summarized in the tables are mean±SEM of 1 to 2 independent experiments.
as §2

Structure (SMILES)	IC50 (HCT116) [µM]	IC50 (HCT116; Homo sapiens, HCT-116, 144 h) [µM]	IC50 (HMEC1; Homo sapiens, HMEC-1, 144 h) [µM]	IC50 (HMEC1) [µM]
CCCc1ccc2cccnc2c1OCCCCCOc1coc(COC2CCCCO2)cc1=O (stereo not shown) [EHT 5810, 5-[5-(7-Propyl-quinolin-8-yloxy)-pentyloxy]-2-(tetrahydro-pyran-2-yloxymethyl)-4H-pyran-4-one]		8.4	15.1	
O=c1cc(CN2CCOCC2)occ1OCCOCCSc1ccnc2cc(C(F)(F)F)ccc12 [EHT 0371, 5-(2-(2-(7-(Trifluoromethyl)quinolin-4-ylthio)ethoxy)ethoxy)-2-(morpholinomethyl)-4H-pyran-4-one]			88.7	
O=c1cc(COC2CCCCO2)occ1OCCCCCCCSc1ccnc2cc(C(F)(F)F)ccc12 (stereo not shown) [EHT 8883, 5-(7-(7-(Trifluoromethyl)quinolin-4-ylthio)heptyloxy)-2-((tetrahydro-2H-pyran-2-yloxy)methyl)-4H-pyran-4-one]			< 10	8
CN1CCN(Cc2cc(=O)c(OCCCCCOc3ccnc4cc(C(F)(F)F)ccc34)co2)CC1 [EHT 0079, 5-(5-(7-(Trifluoromethyl)quinolin-4-yloxy)pentyloxy)-2-((4-methylpiperazin-1-yl)methyl)-4H-pyran-4-one]		12.5	28.6	
O=c1cc(CN2CCOCC2)occ1OCCCCCOc1ccnc2cc(C(F)(F)F)ccc12 [EHT 3411, 5-(5-(7-(Trifluoromethyl)quinolin-4-yloxy)pentyloxy)-2-(morpholinomethyl)-4H-pyran-4-one]		14.1	62.4	
CCOC(=O)c1cnc2cc(C(F)(F)F)ccc2c1OCCCCCOc1coc(CN2CCN(C)CC2)cc1=O [EHT 8791, 4-[5-(6-(4-Methyl-piperazin-1-ylmethyl)-4-oxo-4H-pyran-3-yloxy)-pentyloxy]-7-trifluoromethyl-quinoline-3-carboxylic acid ethyl ester]		~200	~200	
O=c1cc(CN2CCOCC2)occ1OCCCCCOc1ncnc2ccccc12 [EHT 3726, 5-(5-(Quinazolin-4-yloxy)pentyloxy)-2-(morpholinomethyl)-4H-pyran-4-one]		~200		
O=c1cc(CN2CCOCC2)occ1OCCCCCOc1ccnc2ccc(C(F)(F)F)cc12 [EHT 1426, 5-(5-(6-(Trifluoromethyl)quinolin-4-yloxy)pentyloxy)-2-(morpholinomethyl)-4H-pyran-4-one]		18		

Now from value to compound, other results behind:

IC50 (HCT116) [µM]	IC50 (HCT116; Homo sapiens, HCT-116, 144 h) [µM]	Structure (SMILES)	IC50 (HMEC1; Homo sapiens, HMEC-1, 144 h) [µM]	IC50 (HMEC1) [µM]
2.1	< 4	O=c1cc(CN2CCSCC2)occ1OCCCCCSc1ccnc2cc(C(F)(F)F)ccc12 [EHT 5430, 5-(5-(7-(Trifluoromethyl)quinolin-4-ylthio)pentyloxy)-2-(thiomorpholino-methyl)-4H-pyran-4-one]	20.1	
2.3	< 4	CNC(=O)N1CCN(Cc2cc(=O)c(OCCCCCSc3ccnc4cc(C(F)(F)F)ccc34)co2)CC1 [EHT 4495, 4-((5-(5-(7-(Trifluoromethyl)quinolin-4-ylthio)pentyloxy)-4-oxo-4H-pyran-2-yl)methyl)-N-methylpiperazine-1-carboxamide]		
	6.1	CN1CCN(Cc2cc(=O)c(OCCCCCOc3ccnc4c(C(F)(F)F)cccc34)co2)CC1 [EHT 5847, 5-(5-(8-(Trifluoromethyl)quinolin-4-yloxy)pentyloxy)-2-((4-methylpiperazin-1-yl)methyl)-4H-pyran-4-one]	31.6	
2	< 4	O=c1cc(COC2CCCCO2)occ1OCCCCCOc1cccc2ccsc12 (stereo not shown) [EHT 6060, 5-[5-(Benzo[b]thiophen-7-yloxy)-pentyloxy]-2-(tetrahydro-pyran-2-yloxymethyl)-4H-pyran-4-one]	19.1	
	5.5	O=c1cc(CN2CCOCC2)occ1OCCCCCOc1ccnc2c(C(F)(F)F)cccc12 [EHT 4687, 5-(5-(8-(Trifluoromethyl)quinolin-4-yloxy)pentyloxy)-2-(morpholinomethyl)-4H-pyran-4-one]	39.1	
